This is an account of results in patent publication US20070142389A1, “PIPERIDINE DERIVATIVES” (PFIZER INC., priority 2005, published 2007).

Like-named read-outs stand apart in the source and are kept apart here.

Test [1] addresses T1, human norepinephrine transporter (Homo sapiens, UniProt P23975).
T1 construct: expressed in transfected cells; host or cells: HEK-293
Description: hNET Receptor Binding ([125I]-RTI-55 displacement, HEK-293 membranes). Conditions: hNET, HEK-293 cell membranes, 50 pM [125I]-RTI-55, Ki from IC50 by Cheng-Prusoff; read-out: NET Ki. The procedure:
Cell pastes of HEK-293 cells transfected with a human norepinephrine transporter cDNA were prepared. The cell pastes were resuspended in 400 to 700 mL of Krebs-HEPES assay buffer (25 mM HEPES, 122 mM NaCl, 3 mM KCl, 1.2 mM MgSO4, 1.3 mM CaCl2, and 11 mM glucose, pH 7.4) with a Polytron homogenizer at setting 7 for 30 seconds. Aliquots of membranes (5 mg/mL protein) were stored in liquid nitrogen until used.
The binding assay was set up in Beckman deep-well polypropylene plates with a total volume of 250 μL containing: compound of one of the Examples (10^−5M to 10^−12M), cell membranes, and 50 pM [^125I]-RTI-55 (Perkin Elmer, NEX-272; specific activity 2200 Ci/mmol). The reaction was incubated by gentle agitation for 90 minutes at room temperature and was terminated by filtration through Whatman GF/C filter plates using a Brandel 96-well plate harvester. Scintillation fluid (100 μL) was added to each well, and bound [^125I]-RTI-55 was determined using a Wallac Trilux Beta Plate Counter. Test compounds were run in duplicate, and specific binding was defined as the difference between binding in the presence and absence of 10 μM desipramine.
(§1) Excel and GraphPad Prism software were used for data calculation and analysis. IC50 values were converted to Ki values using the Cheng-Prusoff equation.

In test [2] the target is T2, human serotonin transporter (Homo sapiens, UniProt P31645).
T2 construct: expressed in transfected cells; host or cells: HEK-293
T2 sequence (P31645 whole entry): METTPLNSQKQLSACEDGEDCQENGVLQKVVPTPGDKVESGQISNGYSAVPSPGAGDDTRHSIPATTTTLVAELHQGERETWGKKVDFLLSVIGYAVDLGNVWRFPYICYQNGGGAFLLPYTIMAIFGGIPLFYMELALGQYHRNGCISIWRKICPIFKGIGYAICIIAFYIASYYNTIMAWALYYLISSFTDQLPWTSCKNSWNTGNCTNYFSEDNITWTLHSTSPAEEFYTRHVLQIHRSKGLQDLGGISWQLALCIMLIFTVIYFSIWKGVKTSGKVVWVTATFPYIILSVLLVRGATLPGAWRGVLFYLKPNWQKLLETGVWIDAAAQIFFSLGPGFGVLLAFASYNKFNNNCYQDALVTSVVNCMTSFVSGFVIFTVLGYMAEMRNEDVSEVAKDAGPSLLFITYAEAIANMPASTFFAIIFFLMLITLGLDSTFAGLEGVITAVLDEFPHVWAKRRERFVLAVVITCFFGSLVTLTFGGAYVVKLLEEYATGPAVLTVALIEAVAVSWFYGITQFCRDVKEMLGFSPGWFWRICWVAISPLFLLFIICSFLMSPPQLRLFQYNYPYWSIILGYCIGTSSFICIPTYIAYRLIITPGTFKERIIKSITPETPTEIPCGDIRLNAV
Description: hSERT Receptor Binding ([125I]-RTI-55 displacement, HEK-293 membranes). Conditions: hSERT, HEK-293 cell membranes, 50 pM [125I]-RTI-55, Ki from IC50 by Cheng-Prusoff; read-out: SERT Ki. The procedure: Cell pastes of HEK-293 cells transfected with a human serotonin transporter cDNA were prepared. The cell pastes were resuspended in 400 to 700 mL of Krebs-HEPES assay buffer (25 mM HEPES, 122 mM NaCl, 3 mM KCl, 1.2 mM MgSO4, 1.3 mM CaCl2, and 11 mM glucose, pH 7.4) with a Polytron homogenizer at Setting 7 for 30 seconds. Aliquots of membranes (about 2.5 mg/mL protein) were stored in liquid nitrogen until used.
Assays were set up in FlashPlates pre-coated with 0.1 % PEI in a total volume of 250 μL containing: compound of one of the Examples (10^−5M to 10^−12M), cell membanes, and 50 pM [^125l]-RTI-55 (Perkin Elmer, NEX-272; specific activity 2200 Ci/mmol). The reaction was incubated and gently agitated for 90 minutes at room temperature, and terminated by removal of assay volume. Plates were covered, and bound [^125I]-RTI-55 was determined using a Wallac Trilux Beta Plate Counter. Test compounds were run in duplicate, and specific binding was defined as the difference between binding in the presence and absence of 10 μM citalopram.
as §1

In test [3] the test system is capsaicin-induced mechanical allodynia in a rat. Put plainly: rat model of capsaicin-induced mechanical allodynia. The class given is in vivo. Conditions: sc, read-out: % Inhibition of Allodynia. How it is done:
Compounds of the present invention may be assayed for their ability to alleviate capsaicin-induced mechanical allodynia in a rat (e.g., Sluka (2002) J of Neuroscience, 22(13): 5687-5693). For example, a rat model of capsaicin-induced mechanical allodynia was carried out as follows:
On day 0, male Sprague-Dawley rats (about 150 g each) in the dark cycle were placed in suspended wire-bottom cages and allowed to acclimate for 0.5 hour in a darkened, quiet room. The day 0 paw withdrawal threshold (PWT) was determined on the left hind paw by Von Frey hair assessment using the Dixon up and down method. After assessment, the plantar muscle of the right hind paw was injected with 100 μL capsaicin (0.25% (w/v) in 10% ethanol, 10% Tween 80, in sterile saline). On day 6 the PWT of the left hind paw (contralateral from injection site) was determined for each animal. Animals from the day 6 prereads with PWT ≦11.7 g were considered allodynic responders and were regrouped so that each cage had similar mean PWT values. On day 7, responders were dosed subcutaneously with 10 mg compound/kg body weight, or with vehicle alone. The vehicle was phosphate buffered saline containing 2% Cremophor® EL (BASF Corp., Florham Park, N.J.). The contralateral PWT values were determined at 1 hour after the single dose, with the investigator blinded to the dosing scheme.
For each animal, the day 6 PWT value was subtracted from the 1 hour PWT value to give a delta PWT value that represents the change in PWT due to the 1 hour drug treatment. In addition, the day 6 PWT was subtracted from the day 0 PWT to give the baseline window of allodynia present in each animal. To determine % inhibition of allodynia of each animal normalized for vehicle controls, the following formula was used: % Inhibition of Allodynia =100× [(Delta PWT(drug)—mean Delta PWT(vehicle))/(Baseline—mean Delta PWT(vehicle))].
The mean percent inhibition of allodynia values (for eight animals assayed for each compound) +/− the standard error of the mean (SEM) are shown in Table 2.

The mark [4] stands for this setting: male Sprague-Dawley rats, 10 mg/kg subcutaneously, PWT 1 hour after single dose, mean +/- SEM of eight animals, normalized for vehicle.

T1 sequence (P23975 whole entry): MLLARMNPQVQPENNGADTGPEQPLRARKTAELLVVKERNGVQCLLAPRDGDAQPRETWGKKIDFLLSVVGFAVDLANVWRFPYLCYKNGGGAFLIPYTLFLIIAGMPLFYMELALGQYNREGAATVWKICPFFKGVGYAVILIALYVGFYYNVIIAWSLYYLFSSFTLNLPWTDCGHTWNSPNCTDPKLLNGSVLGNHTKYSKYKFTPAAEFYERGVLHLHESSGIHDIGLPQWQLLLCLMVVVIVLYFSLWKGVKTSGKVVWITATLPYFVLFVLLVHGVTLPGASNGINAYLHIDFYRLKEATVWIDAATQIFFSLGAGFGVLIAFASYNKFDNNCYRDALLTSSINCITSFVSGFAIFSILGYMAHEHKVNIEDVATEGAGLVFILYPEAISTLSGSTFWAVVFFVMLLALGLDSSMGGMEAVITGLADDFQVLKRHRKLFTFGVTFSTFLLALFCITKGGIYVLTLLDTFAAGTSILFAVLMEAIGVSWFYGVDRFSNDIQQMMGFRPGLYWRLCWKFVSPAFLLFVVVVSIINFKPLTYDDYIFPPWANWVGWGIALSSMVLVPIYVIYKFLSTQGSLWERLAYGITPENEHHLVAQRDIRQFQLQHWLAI

A word on the Ki: it is the equilibrium dissociation constant of an inhibitor or competing ligand from its target. For `CC(C)Oc1ncccc1OC[C@@H]1CNCC[C@H]1c1ccccc1` [Example 12, (3S,4R)-2-lsopropoxy-3-(4-phenyl-piperidin-3-ylmethoxy)-pyridine], the Ki in test [1] worked out at 4.18 nM; in test [2], 40.6 nM. Moreover, in test [3] (setting [4]), the inhibition in vivo at 10 mg/kg was determined as 66.4%.

On to `COCCCOc1ncccc1OC[C@@H]1CNCC[C@H]1c1ccccc1` [Example 14, (3S,4R)-2-(3-Methoxy-propoxy)-3-(4-phenyl-piperidin-3-ylmethoxy)-pyridine], for which the Ki came out at 12.1 nM in test [1] and 164 nM in test [2]. Further, the inhibition in vivo at 10 mg/kg in test [3] (setting [4]) stood at 22.7%.

`CCCc1ncccc1OC[C@@H]1CNCC[C@H]1c1ccccc1` [Example 17, (3S,4R)-3-(4-Phenyl-piperidin-3-ylmethoxy)-2-propyl-pyridine]: the Ki is 13.2 nM in test [1] and 21.9 nM in test [2]. Also, the inhibition in vivo at 10 mg/kg in test [3] (setting [4]) stood at 2.6%.

For the compound `c1ccc([C@@H]2CCNC[C@H]2COc2ccnc3ccsc23)cc1` [Example 35, (3S,4R)-7-(4-Phenyl-piperidin-3-ylmethoxy)-thieno[3,2-b]pyridine], the figures for the Ki in test [1] and in test [2] were 14.6 nM and 8.4 nM, respectively. For the same compound, the inhibition in vivo at 10 mg/kg in test [3] (1 h) came out at 5.5%.

Turning to `NC(=O)c1ccc(OC[C@@H]2CNCC[C@H]2c2ccccc2)cc1` [Example 38, (3S,4R)-4-(4-Phenyl-piperidin-3-ylmethoxy)-benzamide], the Ki in test [1] worked out at 12.1 nM; in test [2], 174 nM. In addition, the inhibition in vivo at 10 mg/kg in test [3] (setting [4]) worked out at 0.2%.
